Measured values from patent publication US6498253B1, “Acylated aminophenylsulfonylureas, processes for their preparation and their use as herbicides and plant growth regulators” (priority 1994, dated 2002).

Columns and labels:
[1] = system: Sinapis alba, Chrysanthemum segetum, Avena sativa, Stellaria media, Alopecurus myosuroides and Lolium multiflorum; assay: Herbicidal action, pre-emergence (greenhouse pot test); type: in vivo; settings: applied pre-emergence, 0.3 kg and less of active substance per hectare; rated visually after 3 to 4 weeks vs untreated controls
From the text: Seeds or pieces or rhizome of mono- and dicotyledon weed plants were laid out in sandy loam soil in plastic pots and covered with soil. The compounds according to the invention, formulated in the form of wettable powders or emulsion concentrates, were then applied to the surface of the covering soil as an aqueous suspension or emulsion in various dosages, with an amount of water applied, when converted, of 600 to 800 l/ha.
After the treatment, the pots were placed in a greenhouse and kept under good growth conditions for the weeds. The plant damage or emergence damage was rated visually after emergence of the test plants after a test period of 3 to 4 weeks in comparison with untreated controls.

[2] = system: Sinapis alba, Stellaria media, Alopecurus myosuroides and Lolium multiflorum, Chrysanthemum segetum and Avena sativa; assay: Herbicidal action, post-emergence (greenhouse pot test); type: in vivo; settings: applied postemergence in three-leaf stage, 0.3 kg or less of active substance per hectare; rated visually after about 3 to 4 weeks vs untreated controls
Description: Seeds or pieces of rhizome of mono- and dicotyledon weeds were laid out in sandy loam soil in plastic pots, covered with soil and grown in a greenhouse under good growth conditions. Three weeks after sowing, the test plants were treated in the three-leaf stage.
The compounds according to the invention, formulated as wettable powders or as emulsion concentrates, were sprayed onto the green parts of plants in various dosages with an amount of water applied of, when converted, 600 to 800 l/ha, and after the test plants had stood in a greenhouse for about 3 to 4 weeks under optimum growth conditions, the action of the preparations was rated visually in comparison with untreated controls. The compositions according to the invention also show a good herbicidal activity against a broad spectrum of economically important graminaceous weeds and broad-leafed weeds when applied post-emergence.

Row | SMILES | melting point | herbicidal action, pre-emergence [1] | herbicidal action, post-emergence [2]
1 | CCC(=O)Nc1ccc(C(=O)N(C)C)c(S(=O)(=O)NC(=O)Nc2nc(OC)cc(OC)n2)c1 | 135 to 140 °C (dec.) |  | 
2 | COc1cc(OC)nc(NC(=O)[N-]S(=O)(=O)c2cc(NC=O)ccc2C(=O)N(C)C)n1.[Na+] [1 from Table 2] |  | very good herbicidal action | 
3 | COc1cc(OC)nc(NC(=O)[N-]S(=O)(=O)c2cc(NC(C)=O)ccc2C(=O)N(C)C)n1.[Na+] [7 from Table 2] |  | very good herbicidal action | 
4 | COc1cc(OC)nc(NC(=O)NS(=O)(=O)c2cc(NC=O)ccc2C(=O)N(C)C)n1 [8 from Table 1] |  | very good herbicidal action | very good herbicidal action
5 | COc1cc(OC)nc(NC(=O)NS(=O)(=O)c2cc(NC(C)=O)ccc2C(=O)N(C)C)n1 [15 from Table 1] |  | very good herbicidal action | very good herbicidal action
6 | COc1cc(OC)nc(NC(=O)[N-]S(=O)(=O)c2cc(NC(=O)C(C)C)ccc2C(=O)N(C)C)n1.[Na+] [16 from Table 2] |  | very good herbicidal action | 
7 | COc1cc(OC)nc(NC(=O)[N-]S(=O)(=O)c2cc(NC(=O)C(F)(F)F)ccc2C(=O)N(C)C)n1.[Na+] [17 from Table 2] |  | very good herbicidal action | 
8 | COC(=O)Nc1ccc(C(=O)N(C)C)c(S(=O)(=O)[N-]C(=O)Nc2nc(C)nc(OC)n2)c1.[Na+] [20 from Table 2] |  | very good herbicidal action | 
9 | COC(=O)Nc1ccc(C(=O)N(C)C)c(S(=O)(=O)[N-]C(=O)Nc2nc(OC)cc(OC)n2)c1.[Na+] [21 from Table 2] |  | very good herbicidal action | 
10 | CCC(=O)Nc1ccc(C(=O)N(C)C)c(S(=O)(=O)NC(=O)Nc2nc(OC)cc(OC)n2)c1 [22 from Table 1] |  | very good herbicidal action | very good herbicidal action
11 | COC(=O)Nc1ccc(C(=O)N(C)C)c(S(=O)(=O)[N-]C(=O)Nc2nc(Cl)cc(OC)n2)c1.[Na+] [22 from Table 2] |  | very good herbicidal action | 
12 | COc1cc(OC)nc(NC(=O)NS(=O)(=O)c2cc(NC(=O)C(C)C)ccc2C(=O)N(C)C)n1 [25 from Table 1] |  | very good herbicidal action | very good herbicidal action
13 | CCOC(=O)Nc1ccc(C(=O)N(C)C)c(S(=O)(=O)[N-]C(=O)Nc2nc(OC)cc(OC)n2)c1.[Na+] [26 from Table 2] |  | very good herbicidal action | 
14 | COc1cc(OC)nc(NC(=O)NS(=O)(=O)c2cc(NC(=O)C(C)(C)C)ccc2C(=O)N(C)C)n1 [30 from Table 1] |  | very good herbicidal action | very good herbicidal action
15 | COc1cc(C)nc(NC(=O)NS(=O)(=O)c2cc(NC(=O)C(F)(F)F)ccc2C(=O)N(C)C)n1 [40 from Table 1] |  | very good herbicidal action | very good herbicidal action
16 | COc1nc(NC(=O)NS(=O)(=O)c2cc(NC(=O)C(F)(F)F)ccc2C(=O)N(C)C)nc(OC)n1 [44 from Table 1] |  | very good herbicidal action | very good herbicidal action
17 | COC(=O)Nc1ccc(C(=O)N(C)C)c(S(=O)(=O)NC(=O)Nc2nc(OC)cc(OC)n2)c1 [53 from Table 1] |  | very good herbicidal action | very good herbicidal action
18 | COC(=O)Nc1ccc(C(=O)N(C)C)c(S(=O)(=O)NC(=O)Nc2nc(Cl)cc(OC)n2)c1 [55 from Table 1] |  | very good herbicidal action | very good herbicidal action

Row | SMILES | melting point | herbicidal action, pre-emergence [1] | herbicidal action, post-emergence [2]
19 | COC(=O)Nc1ccc(C(=O)N(C)C)c(S(=O)(=O)NC(=O)Nc2nc(C)nc(OC)n2)c1 [58 from Table 1] |  | very good herbicidal action | very good herbicidal action
20 | CCOC(=O)Nc1ccc(C(=O)N(C)C)c(S(=O)(=O)NC(=O)Nc2nc(OC)cc(OC)n2)c1 [59 from Table 1] |  | very good herbicidal action | very good herbicidal action
21 | COc1cc(OC)nc(NC(=O)NS(=O)(=O)c2cc(NC(=O)OCCCl)ccc2C(=O)N(C)C)n1 [65 from Table 1] |  | very good herbicidal action | very good herbicidal action
22 | CCNC(=O)Nc1ccc(C(=O)N(C)C)c(S(=O)(=O)NC(=O)Nc2nc(OC)cc(OC)n2)c1 [72 from Table 1] |  | very good herbicidal action | very good herbicidal action
23 | COc1cc(OC)nc(NC(=O)NS(=O)(=O)c2cc(NS(C)(=O)=O)ccc2C(=O)N(C)C)n1 [77 from Table 1] |  | very good herbicidal action | very good herbicidal action
24 | CNS(=O)(=O)Nc1ccc(C(=O)N(C)C)c(S(=O)(=O)NC(=O)Nc2nc(OC)cc(OC)n2)c1 [87 from Table 1] |  | very good herbicidal action | very good herbicidal action
25 | COc1cc(OC)nc(NC(=O)NS(=O)(=O)c2cc(NC(=O)C3CC3)ccc2C(=O)N(C)C)n1 [115 from Table 1] |  | very good herbicidal action | very good herbicidal action
26 | CCN(C)C(=O)c1ccc(NC=O)cc1S(=O)(=O)NC(=O)Nc1nc(OC)cc(OC)n1 [116 from Table 1] |  | very good herbicidal action | very good herbicidal action
27 | COc1cc(OC)nc(NC(=O)NS(=O)(=O)c2cc(NC=O)ccc2C(=O)N(C)C)n1.[Na] [Example 1 from Table 2, N-[(4,6-dimethoxypyrimidin-2-yl)-aminocarbonyl]-2-dimethylaminocarbonyl-5-formylamino-benzenesulfonamide sodium salt] |  |  | very good herbicidal action
28 | COc1cc(OC)nc(NC(=O)[N-]S(=O)(=O)c2cc(NC(C)=O)ccc2C(=O)N(C)C)n1.[Na+] [Example 7 from Table 2] |  |  | very good herbicidal action
29 | CCC(=O)Nc1ccc(C(=O)N(C)C)c(S(=O)(=O)NC(=O)Nc2nc(OC)cc(OC)n2)c1.[Na] [Example 12 from Table 2, N-[(4,6-dimethoxypyrimidin-2-yl)-aminocarbonyl]-2-dimethylaminocarbonyl-5-propionylamino-benzenesulfonamide sodium salt] | 212 °C (dec.) |  | very good herbicidal action
30 | COc1cc(OC)nc(NC(=O)[N-]S(=O)(=O)c2cc(NC(=O)C(C)C)ccc2C(=O)N(C)C)n1.[Na+] [Example 16 from Table 2] |  |  | very good herbicidal action
31 | COc1cc(OC)nc(NC(=O)[N-]S(=O)(=O)c2cc(NC(=O)C(F)(F)F)ccc2C(=O)N(C)C)n1.[Na+] [Example 17 from Table 2] |  |  | very good herbicidal action
32 | COC(=O)Nc1ccc(C(=O)N(C)C)c(S(=O)(=O)[N-]C(=O)Nc2nc(C)nc(OC)n2)c1.[Na+] [Example 20 from Table 2] |  |  | very good herbicidal action
33 | COC(=O)Nc1ccc(C(=O)N(C)C)c(S(=O)(=O)NC(=O)Nc2nc(OC)cc(OC)n2)c1.[Na] [Example 21 from Table 2, N-[(4,6-dimethoxypyrimidin-2-yl)-aminocarbonyl]-2-dimethylaminocarbonyl-5-methoxycarbonylamino-benzenesulfonamide sodium salt] | 187 to 191 °C (dec.) |  | very good herbicidal action
34 | COC(=O)Nc1ccc(C(=O)N(C)C)c(S(=O)(=O)[N-]C(=O)Nc2nc(Cl)cc(OC)n2)c1.[Na+] [Example 22 from Table 2] |  |  | very good herbicidal action
35 | CCOC(=O)Nc1ccc(C(=O)N(C)C)c(S(=O)(=O)[N-]C(=O)Nc2nc(OC)cc(OC)n2)c1.[Na+] [Example 26 from Table 2] |  |  | very good herbicidal action
